Reference: patent US20180000085A1, “USE OF PICOLINAMIDE COMPOUNDS WITH FUNGICIDAL ACTIVITY” (DOW AGROSCIENCES LLC, priority 2014, published 2018)

Legend:
Zymoseptoria tritici = experiment: Leaf blotch of wheat (SEPTTR) disease control on wheat seedlings; format: in vivo; parameters: key to SEPTTR 1DP, HV activity at 100 ppm (% control rating) / SEPTTR 3DC, HV activity at 100 ppm (% control rating) / SEPTTR disease control, 1DP / SEPTTR disease control, 3DC / SEPTTR 1DP disease control rating, HV activity / SEPTTR 3DC disease control rating, HV activity / SEPTTR 3DC, LV activity at 125.1 g/H (% Control rating) / SEPTTR 1DP, LV activity at 125.1 g/H (% Control rating) / SEPTTR 1DP disease control rating, LV activity at 125.1 g/H / SEPTTR 3DC disease control rating, LV activity at 125.1 g/H / SEPTTR 3DC disease control rating, HV activity at 100 ppm / SEPTTR 1DP disease control rating, HV activity at 100 ppm / HV activity at 100 ppm SEPTTR 3DC (disease control rating) / HV activity at 100 ppm SEPTTR 1DP (disease control rating) / LV activity at 125.1 g/H SEPTTR 1DP (disease control rating) / LV activity at 125.1 g/H SEPTTR 3DC (disease control rating): A: > 80; B: ≤ 80; C: Not Tested; D: No Activity Observed in the Reported Assay; settings: low volume application, 125.1 g/H, wheat leaf blotch; for LV activity at 125.1 g/H SEPTTR 1DP (disease control rating): 1 Day Protectant; for LV activity at 125.1 g/H SEPTTR 3DC (disease control rating): 3 Day Curative
Puccinia triticina = experiment: Wheat brown rust (PUCCRT) disease control on wheat seedlings; format: in vivo; settings: low volume application, 125.1 g/H, wheat brown rust; for LV activity at 125.1 g/H PUCCRT 1DP (disease control rating): 1 Day Protectant; for LV activity at 125.1 g/H PUCCRT 3DC (disease control rating): 3 Day Curative

SMILES	LV activity at 125.1 g/H SEPTTR 1DP (disease control rating) (Zymoseptoria tritici)	LV activity at 125.1 g/H SEPTTR 3DC (disease control rating) (Zymoseptoria tritici)	LV activity at 125.1 g/H PUCCRT 1DP (disease control rating) (Puccinia triticina)	LV activity at 125.1 g/H PUCCRT 3DC (disease control rating) (Puccinia triticina)
COc1ccnc(C(=O)N[C@@H](C)C(=O)O[C@@H](C)[C@H](Oc2ccc(C)cc2)C(C)(C)C)c1OC(C)=O [Cmpd 1059]	B (≤ 80)	B (≤ 80)	A (> 80)	A (> 80)
CCC[C@@H](Oc1ccc(C)cc1)[C@H](C)OC(=O)[C@H](C)NC(=O)c1nccc(OC)c1OC(C)=O [Cmpd 1060]	B (≤ 80)	B (≤ 80)	A (> 80)	A (> 80)
COc1cccc(O[C@H](C2CC2)[C@H](C)OC(=O)[C@H](C)NC(=O)c2nccc(OC)c2OC(C)=O)c1 [Cmpd 1061]	D	B (≤ 80)	B (≤ 80)	A (> 80)
COc1cccc(O[C@@H]([C@H](C)OC(=O)[C@H](C)NC(=O)c2nccc(OC)c2OC(C)=O)C(C)(C)C)c1 [Cmpd 1062]	B (≤ 80)	B (≤ 80)	A (> 80)	A (> 80)
CCC[C@@H](Oc1cccc(OC)c1)[C@H](C)OC(=O)[C@H](C)NC(=O)c1nccc(OC)c1OC(C)=O [Cmpd 1063]	B (≤ 80)	A (> 80)	A (> 80)	A (> 80)
COc1ccnc(C(=O)N[C@@H](C)C(=O)O[C@@H](C)[C@H](Oc2ccccc2)C2CC2)c1OC(C)=O [Cmpd 1064]	B (≤ 80)	A (> 80)	A (> 80)	A (> 80)
COc1ccnc(C(=O)N[C@@H](C)C(=O)O[C@@H](C)[C@H](Oc2ccccc2)C(C)(C)C)c1OC(C)=O [Cmpd 1065]	B (≤ 80)	A (> 80)	A (> 80)	A (> 80)
COc1ccnc(C(=O)N[C@@H](C)C(=O)O[C@@H](C)[C@H](OCC2CC2)C2CC2)c1OC(C)=O [Cmpd 1066]	B (≤ 80)	B (≤ 80)	B (≤ 80)	A (> 80)
COc1ccnc(C(=O)N[C@@H](C)C(=O)O[C@@H](C)[C@H](Oc2ccc(C)cc2Cl)C(C)(C)C)c1OC(C)=O [Cmpd 1067]	D	B (≤ 80)	A (> 80)	B (≤ 80)
CCC[C@@H](Oc1ccc(C)cc1Cl)[C@H](C)OC(=O)[C@H](C)NC(=O)c1nccc(OC)c1OC(C)=O [Cmpd 1068]	B (≤ 80)	B (≤ 80)	A (> 80)	B (≤ 80)
COc1cc(O[C@H](C2CC2)[C@H](C)OC(=O)[C@H](C)NC(=O)c2nccc(OC)c2OC(C)=O)ccc1Cl [Cmpd 1069]	B (≤ 80)	B (≤ 80)	A (> 80)	A (> 80)
COc1cc(O[C@@H]([C@H](C)OC(=O)[C@H](C)NC(=O)c2nccc(OC)c2OC(C)=O)C(C)(C)C)ccc1Cl [Cmpd 1070]	B (≤ 80)	D	A (> 80)	A (> 80)
